Test system: A549-NF-κB-SEAP reporter cells
Assay: Inhibition of NF-κB-induced inflammation ([…] NINA Instant Assay, SEAP reporter)
Type: cell-based
Settings: NF-κB inflammation assay
Description: For the determination of anti-inflammatory activity of the compounds the […]® NINA Instant Assay from Cell Culture Service GmBH was used. This assay is based on recombinant A549-NF-κB-SEAP reporter cells preseeded in 96-well flat bottom plates. As the transfected reportergen for SEAP (secreted embryonic alkaline phosphatase) is under transcriptional control of a NF-κB-responsive element, the expression of this reporter is activated upon stimulation with TNF-α. SEAP secretion into the culture supernatant can be detected by the chemiluminescent substrate CSPD®. Test compounds that inhibit the NF-κB activation show reduced SEAP activity and reduced luminescent readout.
Following 18 h of reactivation at 37° C., 5% CO2 and 90% relative humidity, the cells were incubated with 0.01 up to 100 μM of test compound for 4.5 h before stimulation with 2 ng/ml TNF-α. After stimulation with TNF-α for 22 h endogenous phosphatases were inactivated and CSPD® substrate was supplied for 40 min. SEAP activity then was quantified by measuring luminescence as relative light units (RLU) using a Tecan Ultra reader. Each data point was recorded in quadruplicates and EC50 values were calculated via fitting function and the Microsoft Excel Solver.

Compound | Biological activity (inhibition in the NF-κB inflammation assay)
CN1CCN(c2ccc3nc(NC(=O)c4csc(NC(=O)c5ccccc5OC(F)(F)F)n4)sc3c2)CC1 [compound 42] | +++ (“+++” stands for 90-100% inhibition)
NC(=Nc1nc2ccccc2[nH]1)NC(=O)c1csc(NC(=O)c2ccc(C(F)(F)F)c(F)c2)n1 [compound 56] | +++ (“+++” stands for 90-100% inhibition)
N=C(NC(=O)c1coc(NC(=O)c2ccc(C(F)(F)F)c(F)c2)n1)Nc1nc2ccccc2[nH]1 [compound 27] | +++ (“+++” stands for 90-100% inhibition)

Same assay, conditions: compounds of formula (I); TNF-α stimulated reporter cells; test concentration not given

Compound | Biological activity (NF-κB inflammation assay, inhibition)
COc1ccc(OC)c(N2CCC(c3nc(C(=O)N4CCN(c5cccc(C(F)(F)F)c5)CC4)cs3)CC2)c1 [compound 29] | ++ (“++” means 80-90%)
O=C(c1csc(C2CCN(S(=O)(=O)c3ccc(Cl)cc3)CC2)n1)N1CCN(c2cccc(C(F)(F)F)c2)CC1 [compound 206] | + (“+” stands for 50-80% inhibition)
O=C(c1csc(C2CCN(Cc3c(F)cccc3F)CC2)n1)N1CCN(c2cccc(C(F)(F)F)c2)CC1 [compound 168] | + (“+” stands for 50-80% inhibition)
O=C(c1csc(C2CCN(C(=O)c3ccccc3OC(F)(F)F)CC2)n1)N1CCN(c2cccc(Cl)c2)CC1 [compound 151] | + (“+” stands for 50-80% inhibition)
O=C(C=Cc1ccccc1)N1CCC(c2nc(C(=O)N3CCN(c4cccc(C(F)(F)F)c4)CC3)cs2)CC1 [compound 214] | ++ (“++” means 80-90%)
O=C(c1csc(C2CCN(S(=O)(=O)c3ccc(F)cc3Cl)CC2)n1)N1CCN(c2cccc(C(F)(F)F)c2)CC1 [compound 195] | + (“+” stands for 50-80% inhibition)
O=C(c1csc(C2CCN(C(=O)c3ccccc3OC(F)(F)F)CC2)n1)N1CCN(c2nc3ccccc3n2Cc2ccc(F)cc2)CC1 [compound 98] | +++ (“+++” stands for 90-100% inhibition)
O=C(c1csc(C2CCN(C(=O)c3cc(-c4ccc(Cl)cc4)oc3C(F)(F)F)CC2)n1)N1CCN(c2cccc(C(F)(F)F)c2)CC1 [compound 218] | +++ (“+++” stands for 90-100% inhibition)
O=C(O)c1cccc(O)c1C(=O)N1CCC(c2nc(C(=O)N3CCN(c4cccc(C(F)(F)F)c4)CC3)cs2)CC1 [compound 186] | + (“+” stands for 50-80% inhibition)
COc1nc(OC)nc(N2CCN(C(=O)c3csc(C4CCN(C(=O)Cc5ccc(F)cc5)CC4)n3)CC2)n1 [compound 126] | + (“+” stands for 50-80% inhibition)
O=C(c1csc(C2CCN(C(=O)c3cccs3)CC2)n1)N1CCN(c2cccc(C(F)(F)F)c2)CC1 [compound 212] | + (“+” stands for 50-80% inhibition)
O=C(O)c1ccc(C(=O)O)c(C(=O)N2CCC(c3nc(C(=O)N4CCN(c5cccc(C(F)(F)F)c5)CC4)cs3)CC2)c1 [compound 184] | + (“+” stands for 50-80% inhibition)
CN(C)c1cccc(C(=O)N2CCC(c3nc(C(=O)N4CCN(c5cccc(C(F)(F)F)c5)CC4)cs3)CC2)c1 [compound 226] | ++ (“++” means 80-90%)
O=C(c1ccc2nccnc2c1)N1CCC(c2nc(C(=O)N3CCN(c4cccc(C(F)(F)F)c4)CC3)cs2)CC1 [compound 211] | + (“+” stands for 50-80% inhibition)
O=C(c1csc(C2CCN(c3ccc4c(c3)OCO4)CC2)n1)N1CCN(c2cccc(C(F)(F)F)c2)CC1 [compound 156] | + (“+” stands for 50-80% inhibition)
N#Cc1ccc(C(=O)N2CCC(c3nc(C(=O)N4CCN(c5cccc(C(F)(F)F)c5)CC4)cs3)CC2)cc1 [compound 70] | ++ (“++” means 80-90%)
O=C(Cc1ccc(F)cc1)N1CCC(c2nc(C(=O)N3CCN(c4ccccn4)CC3)cs2)CC1 [compound 237] | + (“+” stands for 50-80% inhibition)
O=C(O)c1ccccc1C(=O)N1CCC(c2nc(C(=O)N3CCN(c4cccc(C(F)(F)F)c4)CC3)cs2)CC1 [compound 185] | + (“+” stands for 50-80% inhibition)
O=C(c1csc(C2CCN(Cc3ccc(Br)cc3)CC2)n1)N1CCN(c2cccc(C(F)(F)F)c2)CC1 [compound 174] | + (“+” stands for 50-80% inhibition)
O=C(Cc1ccc(F)cc1)N1CCC(c2nc(C(=O)N3CCN(c4cccc(Cl)c4)CC3)cs2)CC1 [compound 238] | + (“+” stands for 50-80% inhibition)
O=C(O)C1=C(C(=O)N2CCC(c3nc(C(=O)N4CCN(c5cccc(C(F)(F)F)c5)CC4)cs3)CC2)CCC1 [compound 188] | + (“+” stands for 50-80% inhibition)
O=C(CCC1CCCC1)N1CCC(c2nc(C(=O)N3CCN(c4cccc(C(F)(F)F)c4)CC3)cs2)CC1 [compound 224] | + (“+” stands for 50-80% inhibition)
O=C(c1csc(C2CCN(CCC(c3ccccc3)c3ccccc3)CC2)n1)N1CCN(c2cccc(C(F)(F)F)c2)CC1 [compound 35] | +++ (“+++” stands for 90-100% inhibition)
O=C(c1csc(C2CCN(c3ccc(OC(F)(F)F)cc3)CC2)n1)N1CCN(c2cccc(C(F)(F)F)c2)CC1 [compound 154] | + (“+” stands for 50-80% inhibition)
O=C(c1csc(C2CCN(C(=O)c3ccccc3OC(F)(F)F)CC2)n1)N1CCC(n2nnc3ccccc32)CC1 [compound 111] | + (“+” stands for 50-80% inhibition)
O=C(c1csc(C2CCN(c3ccc(C(F)(F)F)cc3)CC2)n1)N1CCN(c2cccc(C(F)(F)F)c2)CC1 [compound 155] | + (“+” stands for 50-80% inhibition)
Cc1ccc(S(=O)(=O)N2CCC(c3nc(C(=O)N4CCN(c5cccc(C(F)(F)F)c5)CC4)cs3)CC2)cc1 [compound 204] | + (“+” stands for 50-80% inhibition)
O=C(c1csc(C2CCN(S(=O)(=O)c3ccc(Br)s3)CC2)n1)N1CCN(c2cccc(C(F)(F)F)c2)CC1 [compound 203] | + (“+” stands for 50-80% inhibition)

Same assay, conditions: compounds of formula (II); TNF-α stimulated reporter cells; test concentration not given

Compound | Biological activity (NF-κB inflammation assay, inhibition)
O=C(c1csc(N2CCN(Cc3ccccc3)CC2)n1)N1CCN(c2cccc(C(F)(F)F)c2)CC1 [compound 72] | +++ (“+++” stands for 90-100% inhibition)
N#Cc1ccc(CN2CCN(c3nc(C(=O)N4CCN(c5cccc(C(F)(F)F)c5)CC4)cs3)CC2)cc1 [compound 62] | +++ (“+++” stands for 90-100% inhibition)
O=C(Nc1nc(C(=O)N2CCN(c3cccc(C(F)(F)F)c3)CC2)cs1)c1ccc(C(F)(F)F)c(F)c1 [compound 34] | +++ (“+++” stands for 90-100% inhibition)
COc1ccccc1N1CCN(C(=O)c2csc(NC(=O)c3ccccc3OC(F)(F)F)n2)CC1 [compound 44] | ++ (“++” means 80-90%)
O=C(Nc1nc(C(=O)N2CCN(c3cccc(C(F)(F)F)c3)CC2)cs1)Nc1ccccc1OC(F)(F)F [compound 55] | +++ (“+++” stands for 90-100% inhibition)
COc1ccccc1C(=O)N1CCN(c2nc(C(=O)N3CCN(c4cccc(C(F)(F)F)c4)CC3)cs2)CC1 [compound 38] | +++ (“+++” stands for 90-100% inhibition)
COc1ccccc1N1CCN(c2nc(C(=O)N3CCN(c4cccc(C(F)(F)F)c4)CC3)cs2)CC1 [compound 65] | ++ (“++” means 80-90%)

Same assay, conditions: compounds of formula (Ia); TNF-α stimulated reporter cells; test concentration not given

Compound | Biological activity (NF-κB inflammation assay, inhibition)
O=C(Nc1ccc(F)cc1)N1CCC(c2nc(C(=O)N3CCN(c4cccc(C(F)(F)F)c4)CC3)cs2)CC1 [compound 143] | + (“+” stands for 50-80% inhibition)
Cc1cc(NC(=O)N2CCC(c3nc(C(=O)N4CCN(c5cccc(C(F)(F)F)c5)CC4)cs3)CC2)c(C(F)(F)F)o1 [compound 76] | ++ (“++” means 80-90%)
O=C(Nc1cccc(F)c1)N1CCC(c2nc(C(=O)N3CCN(c4cccc(C(F)(F)F)c4)CC3)cs2)CC1 [compound 142] | ++ (“++” means 80-90%)

Same assay, conditions: compounds of formula (Ic); TNF-α stimulated reporter cells; test concentration not given

Compound | Biological activity (NF-κB inflammation assay, inhibition)
COc1cc2c(cc1OC)C(C)N(C(=O)c1csc(C3CCN(C(=O)Cc4ccc(F)cc4)CC3)n1)CC2 (stereo not shown) [compound 234] | + (“+” stands for 50-80% inhibition)
CC1c2cc(O)c(O)cc2CCN1C(=O)c1csc(C2CCN(C(=O)Cc3ccc(F)cc3)CC2)n1 (stereo not shown) [compound 233] | + (“+” stands for 50-80% inhibition)
CNc1ccc(Cl)cc1C1c2ccccc2CCN1C(=O)c1csc(C2CCN(C(=O)c3ccccc3OC(F)(F)F)CC2)n1 (stereo not shown) [compound 150] | ++ (“++” means 80-90%)
O=C(Cc1ccc(F)cc1)N1CCC(c2nc(C(=O)N3CCc4ccccc4C3)cs2)CC1 [compound 163] | + (“+” stands for 50-80% inhibition)
O=C(Cc1ccc(F)cc1)N1CCC(c2nc(C(=O)N3CCc4cc(O)c(O)cc4C3)cs2)CC1 [compound 160] | + (“+” stands for 50-80% inhibition)

Reference: patent publication US7601745B2, “Heterocyclic NF-kB inhibitors” (4SC AG, priority 2004, dated 2009)
